This data set in a line: recombinant UMI read abundance after kanamycin selection (control-corrected) (log10(CPM+1)); higher = more efficient recombination; extreme values may be limits of the assay; sequences stand for … in AGTGCAGAGAAAATCGGCCAGTTTTCTCTGCCTGCAGTCCGCATGCCGTGGGACCCCTTGGGTTCTAACCTGTTGCCTAGATTTATGCAGCGGACTGCCTTTCTCCCAAAGTGATAAACCGG…AGGTTGGTTTCACT; site = the 11-nt donor. An outline of the steps:
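Sequencing read counts were converted to CPM, averaged over two replicates and scaled by control-derived factors. Results are given as log10(CPM+1). The reads covered the donor–target junction of recombinant UMIs from a pooled Escherichia coli screen of donor and donor-binding-loop pairs for the IS621 bridge recombinase.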
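Also: IS621 bridge recombinase in Escherichia coli cells against a fixed T5 target plasmid.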

As to “TCAACGGCATGGACCGGTTTTCCCGGTAATCCGTATTTGCC (site TCAACGGCTGG)”, the “recombinant UMI read abundance (log10)” value was 0.143.

In the case of “TCAAGCACATGGACCGGTTTTCCCGGTAATCCGTATTTGAT (site TCAAGCACTAT)”, the “recombinant UMI read abundance (log10)” value was 1.94.

Regarding “TCAAGTCCATGGACCGGTTTTCCCGGTAATCCGTATTTGTA (site TAAAGTCCTTA)”, the “recombinant UMI read abundance (log10)” value came out at 0.314.

“TCAAGTCCATGGACCGGTTTTCCCGGTAATCCGTATTTGTA (site TCAAGTCCTTA)”: the “recombinant UMI read abundance (log10)” value came out at 1.01.

For “TCAAGTCCATGGACCGGTTTTCCCGGTAATCCGTATTTGTA (site TGAAGTCCTTA)”, the “recombinant UMI read abundance (log10)” value is 0.226.

Turning to “TCAAGTCCATGGACCGGTTTTCCCGGTAATCCGTATTTGTA (site TTAAGTCCTTA)”, the “recombinant UMI read abundance (log10)” value is 0.0663.

Regarding “TCAATGACATGGACCGGTTTTCCCGGTAATCCGTATTTGGT (site TCAATGACTAC)”, the “recombinant UMI read abundance (log10)” value was found to be 0.953.

In the case of “TCACACCCATGGACCGGTTTTCCCGGTAATCCGTATTTGCC (site TCACACCCTGG)”, the “recombinant UMI read abundance (log10)” value was determined as 0.92.

Turning to “TCACAGACATGGACCGGTTTTCCCGGTAATCCGTATTTGCG (site TCAAAGACTCG)”, the “recombinant UMI read abundance (log10)” value amounted to 0.308.

With “TCACAGACATGGACCGGTTTTCCCGGTAATCCGTATTTGCG (site TCACAGACTCG)”, the “recombinant UMI read abundance (log10)” value came out at 2.16.

“TCACAGACATGGACCGGTTTTCCCGGTAATCCGTATTTGCG (site TCAGAGACTCG)”: the “recombinant UMI read abundance (log10)” value worked out at 0.267.

“TCACAGACATGGACCGGTTTTCCCGGTAATCCGTATTTGCG (site TCATAGACTCG)”: the “recombinant UMI read abundance (log10)” value is 0.29.

On to “TCACATCCATGGACCGGTTTTCCCGGTAATCCGTATTTGAC (site ACACATCCTGT)”, for which the “recombinant UMI read abundance (log10)” value was 0.

With “TCACATCCATGGACCGGTTTTCCCGGTAATCCGTATTTGAC (site CCACATCCTGT)”, the “recombinant UMI read abundance (log10)” value was 0.

For the sequence “TCACATCCATGGACCGGTTTTCCCGGTAATCCGTATTTGAC (site GCACATCCTGT)”, the “recombinant UMI read abundance (log10)” value is 0.

Regarding “TCACATCCATGGACCGGTTTTCCCGGTAATCCGTATTTGAC (site TCACATCCTGT)”, the “recombinant UMI read abundance (log10)” value was 0.

As for “TCACCCGCATGGACCGGTTTTCCCGGTAATCCGTATTTGGT (site TCACCCGCTAC)”, the “recombinant UMI read abundance (log10)” value came out at 0.206.

For “TCACCTTCATGGACCGGTTTTCCCGGTAATCCGTATTTGGT (site TCACCTTCTAC)”, the “recombinant UMI read abundance (log10)” value was found to be 0.0163.

With “TCACGAACATGGACCGGTTTTCCCGGTAATCCGTATTTGTC (site ACACGAACTGA)”, the “recombinant UMI read abundance (log10)” value stood at 0.

Turning to “TCACGAACATGGACCGGTTTTCCCGGTAATCCGTATTTGTC (site CCACGAACTGA)”, the “recombinant UMI read abundance (log10)” value was found to be 0.736.

Take “TCACGAACATGGACCGGTTTTCCCGGTAATCCGTATTTGTC (site GCACGAACTGA)”: the “recombinant UMI read abundance (log10)” value is 0.

“TCACGAACATGGACCGGTTTTCCCGGTAATCCGTATTTGTC (site TCACGAACTGA)”: the “recombinant UMI read abundance (log10)” value was determined as 0.

In the case of “TCACGAGCATGGACCGGTTTTCCCGGTAATCCGTATTTGAA (site TCACGAGCTTT)”, the “recombinant UMI read abundance (log10)” value was 1.23.

Regarding “TCACGCACATGGACCGGTTTTCCCGGTAATCCGTATTTGAC (site TCACGCACTGT)”, the “recombinant UMI read abundance (log10)” value came to 0.943.

As to “TCACGCGCATGGACCGGTTTTCCCGGTAATCCGTATTTGCT (site TCACGCGCTAG)”, the “recombinant UMI read abundance (log10)” value came to 1.67.

With “TCACGGACATGGACCGGTTTTCCCGGTAATCCGTATTTGCT (site TCACGGACTAG)”, the “recombinant UMI read abundance (log10)” value was 1.43.

“TCAGAAACATGGACCGGTTTTCCCGGTAATCCGTATTTGCG (site TCAGAAACTCG)”: the “recombinant UMI read abundance (log10)” value worked out at 1.86.

As for “TCAGAAACATGGACCGGTTTTCCCGGTAATCCGTATTTGCG (site TCAGACACTCG)”, the “recombinant UMI read abundance (log10)” value was 0.0112.

With “TCAGAAACATGGACCGGTTTTCCCGGTAATCCGTATTTGCG (site TCAGAGACTCG)”, the “recombinant UMI read abundance (log10)” value stood at 2.47.

For “TCAGAAACATGGACCGGTTTTCCCGGTAATCCGTATTTGCG (site TCAGATACTCG)”, the “recombinant UMI read abundance (log10)” value is 0.202.

In the case of “TCAGAAACATGGACCGGTTTTCCCGGTAATCCGTATTTGTA (site TCAGAAACTTA)”, the “recombinant UMI read abundance (log10)” value came out at 2.07.

On to “TCAGACACATGGACCGGTTTTCCCGGTAATCCGTATTTGCG (site TCAGAAACTCG)”, for which the “recombinant UMI read abundance (log10)” value stood at 0.

“TCAGACACATGGACCGGTTTTCCCGGTAATCCGTATTTGCG (site TCAGACACTCG)”: the “recombinant UMI read abundance (log10)” value was 1.77.

In the case of “TCAGACACATGGACCGGTTTTCCCGGTAATCCGTATTTGCG (site TCAGAGACTCG)”, the “recombinant UMI read abundance (log10)” value came out at 0.0043.

For the sequence “TCAGACACATGGACCGGTTTTCCCGGTAATCCGTATTTGCG (site TCAGATACTCG)”, the “recombinant UMI read abundance (log10)” value turned out to be 0.946.

As for “TCAGAGACATGGACCGGTTTTCCCGGTAATCCGTATTTGAA (site TCAGAGACTTT)”, the “recombinant UMI read abundance (log10)” value turned out to be 1.74.

Take “TCAGAGACATGGACCGGTTTTCCCGGTAATCCGTATTTGCA (site TCAGAGACTAG)”: the “recombinant UMI read abundance (log10)” value was 0.204.

With “TCAGAGACATGGACCGGTTTTCCCGGTAATCCGTATTTGCA (site TCAGAGACTCG)”, the “recombinant UMI read abundance (log10)” value came to 1.34.

Take “TCAGAGACATGGACCGGTTTTCCCGGTAATCCGTATTTGCA (site TCAGAGACTGG)”: the “recombinant UMI read abundance (log10)” value is 0.635.

Turning to “TCAGAGACATGGACCGGTTTTCCCGGTAATCCGTATTTGCA (site TCAGAGACTTG)”, the “recombinant UMI read abundance (log10)” value amounted to 2.49.

As for “TCAGAGACATGGACCGGTTTTCCCGGTAATCCGTATTTGCC (site TCAGAGACTAG)”, the “recombinant UMI read abundance (log10)” value was determined as 0.85.

For the sequence “TCAGAGACATGGACCGGTTTTCCCGGTAATCCGTATTTGCC (site TCAGAGACTCG)”, the “recombinant UMI read abundance (log10)” value is 0.683.

Take “TCAGAGACATGGACCGGTTTTCCCGGTAATCCGTATTTGCC (site TCAGAGACTGG)”: the “recombinant UMI read abundance (log10)” value was determined as 1.58.

“TCAGAGACATGGACCGGTTTTCCCGGTAATCCGTATTTGCC (site TCAGAGACTTG)”: the “recombinant UMI read abundance (log10)” value stood at 1.62.

As for “TCAGAGACATGGACCGGTTTTCCCGGTAATCCGTATTTGCT (site TCAGAGACTAG)”, the “recombinant UMI read abundance (log10)” value stood at 2.38.

Take “TCAGAGACATGGACCGGTTTTCCCGGTAATCCGTATTTGCT (site TCAGAGACTCG)”: the “recombinant UMI read abundance (log10)” value is 0.601.

“TCAGAGACATGGACCGGTTTTCCCGGTAATCCGTATTTGCT (site TCAGAGACTGG)”: the “recombinant UMI read abundance (log10)” value worked out at 2.21.

As to “TCAGAGACATGGACCGGTTTTCCCGGTAATCCGTATTTGCT (site TCAGAGACTTG)”, the “recombinant UMI read abundance (log10)” value was determined as 0.868.

In the case of “TCAGAGACATGGACCGGTTTTCCCGGTAATCCGTATTTGGG (site TCAGAGACTCA)”, the “recombinant UMI read abundance (log10)” value was 0.0103.

Take “TCAGAGACATGGACCGGTTTTCCCGGTAATCCGTATTTGGG (site TCAGAGACTCC)”: the “recombinant UMI read abundance (log10)” value was 0.

Regarding “TCAGAGACATGGACCGGTTTTCCCGGTAATCCGTATTTGGG (site TCAGAGACTCG)”, the “recombinant UMI read abundance (log10)” value worked out at 0.

For the sequence “TCAGAGACATGGACCGGTTTTCCCGGTAATCCGTATTTGGG (site TCAGAGACTCT)”, the “recombinant UMI read abundance (log10)” value was found to be 0.0246.

Take “TCAGATTCATGGACCGGTTTTCCCGGTAATCCGTATTTGGA (site TCAGATTCTTC)”: the “recombinant UMI read abundance (log10)” value is 1.34.

“TCAGGGACATGGACCGGTTTTCCCGGTAATCCGTATTTGGG (site TCAGGGACTCC)”: the “recombinant UMI read abundance (log10)” value turned out to be 0.00795.

For “TCAGGTTCATGGACCGGTTTTCCCGGTAATCCGTATTTGCT (site TCAGGTTCTAG)”, the “recombinant UMI read abundance (log10)” value turned out to be 1.27.

Consider “TCAGTAGCATGGACCGGTTTTCCCGGTAATCCGTATTTGCA (site ACAGTATCTTG)”, for which the “recombinant UMI read abundance (log10)” value was determined as 2.25.

In the case of “TCAGTAGCATGGACCGGTTTTCCCGGTAATCCGTATTTGCA (site TCAGTAGCTTG)”, the “recombinant UMI read abundance (log10)” value was 1.9.

With “TCAGTCTCATGGACCGGTTTTCCCGGTAATCCGTATTTGAT (site TCAGTCTCTAT)”, the “recombinant UMI read abundance (log10)” value was 2.42.

For “TCAGTGCCATGGACCGGTTTTCCCGGTAATCCGTATTTGCG (site TCAGTGCCTCG)”, the “recombinant UMI read abundance (log10)” value turned out to be 0.0165.

For “TCATACCCATGGACCGGTTTTCCCGGTAATCCGTATTTGCA (site TCATACACTTG)”, the “recombinant UMI read abundance (log10)” value stood at 0.

In the case of “TCATACCCATGGACCGGTTTTCCCGGTAATCCGTATTTGCA (site TCATACCCTTG)”, the “recombinant UMI read abundance (log10)” value worked out at 0.0304.

Consider “TCATACCCATGGACCGGTTTTCCCGGTAATCCGTATTTGCA (site TCATACGCTTG)”, for which the “recombinant UMI read abundance (log10)” value was determined as 0.

Turning to “TCATACCCATGGACCGGTTTTCCCGGTAATCCGTATTTGCA (site TCATACTCTTG)”, the “recombinant UMI read abundance (log10)” value turned out to be 0.995.

With “TCATACGCATGGACCGGTTTTCCCGGTAATCCGTATTTGCA (site TCATACACTTG)”, the “recombinant UMI read abundance (log10)” value worked out at 1.03.

For the sequence “TCATACGCATGGACCGGTTTTCCCGGTAATCCGTATTTGCA (site TCATACCCTTG)”, the “recombinant UMI read abundance (log10)” value is 0.169.

For “TCATACGCATGGACCGGTTTTCCCGGTAATCCGTATTTGCA (site TCATACGCTTG)”, the “recombinant UMI read abundance (log10)” value stood at 2.25.

Take “TCATACGCATGGACCGGTTTTCCCGGTAATCCGTATTTGCA (site TCATACTCTTG)”: the “recombinant UMI read abundance (log10)” value amounted to 0.604.

As to “TCATACTCATGGACCGGTTTTCCCGGTAATCCGTATTTGCA (site ACATACTCTTG)”, the “recombinant UMI read abundance (log10)” value worked out at 1.34.

The record behind these values is the supplement of paper PMC11208160.
